Laboratory results taken from PubChem BioAssay AID248 (DTP/NCI, 2004).
Several values for one entry are separate records, joined by “and”; a condition that tells them apart may be missing. Equal entries are not always repeated. Inconclusive results and toxic doses are left out. Rule as the data show it: active = T/C of 150% or more; inactive = T/C below 125%.

Test system: L1210 leukemia ip in BDF1 mice, survival T/C
Assay: NCI In Vivo Anticancer Drug Screen. Data for tumor model L1210 Leukemia (intraperitoneal) in B6D2F1 (BDF1) mice
Conditions: endpoint: mean survival time, higher = longer survival
Outline: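 Transplantable tumor model; survival measured in treated vs vehicle control mice. Value = treated/control.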

[1] = dose: 100.0 mg/kg/injection, schedule: Q01DX001 (ip), vehicle: saline
[2] = dose: 100.0 mg/kg/injection, schedule: Q01DX009 (ip), vehicle: saline
[3] = dose: 100.0 mg/kg/injection, schedule: Q04DX003 (ip), vehicle: saline
[4] = dose: 200.0 mg/kg/injection, schedule: Q01DX001 (ip), vehicle: saline
[5] = dose: 200.0 mg/kg/injection, schedule: Q04DX003 (ip), vehicle: saline
[6] = dose: 400.0 mg/kg/injection, schedule: Q01DX001 (ip), vehicle: saline
[7] = dose: 400.0 mg/kg/injection, schedule: Q04DX003 (ip), vehicle: saline
[8] = dose: 100.0 mg/kg/injection, schedule: Q01DX001 (ip), vehicle: Klucel (hydroxypropylcellulose) (HPC)
[9] = dose: 200.0 mg/kg/injection, schedule: Q01DX001 (ip), vehicle: Klucel (hydroxypropylcellulose) (HPC)
[10] = dose: 100.0 mg/kg/injection, schedule: Q04DX003 (ip), vehicle: saline with Tween-80
[11] = dose: 200.0 mg/kg/injection, schedule: Q04DX003 (ip), vehicle: saline with Tween-80
[12] = dose: 400.0 mg/kg/injection, schedule: Q04DX003 (ip), vehicle: saline with Tween-80
[13] = dose: 100.0 mg/kg/injection, schedule: Q04DX003 (ip), vehicle: Klucel (hydroxypropylcellulose) (HPC)
[14] = dose: 200.0 mg/kg/injection, schedule: Q04DX003 (ip), vehicle: Klucel (hydroxypropylcellulose) (HPC)
[15] = dose: 400.0 mg/kg/injection, schedule: Q04DX003 (ip), vehicle: Klucel (hydroxypropylcellulose) (HPC)
[16] = dose: 25.0 mg/kg/injection, schedule: Q04DX003 (ip), vehicle: Klucel (hydroxypropylcellulose) (HPC)
[17] = dose: 50.0 mg/kg/injection, schedule: Q04DX003 (ip), vehicle: Klucel (hydroxypropylcellulose) (HPC)
[18] = dose: 100.0 mg/kg/injection, schedule: Q01DX001 (ip), vehicle: saline with Tween-80
[19] = dose: 200.0 mg/kg/injection, schedule: Q01DX001 (ip), vehicle: saline with Tween-80
[20] = dose: 400.0 mg/kg/injection, schedule: Q01DX001 (ip), vehicle: saline with Tween-80

Measured: T/C

CC(=O)C1OC1(C)C (stereo not given)
inactive: [1] 108 % of control | [2] 105 % of control | [3] 108 % of control | [4] 103 % of control | dose: 200.0 mg/kg/injection, schedule: Q01DX009 (ip), vehicle: saline 104 % of control | [5] 102 % of control | [6] 104 % of control | dose: 400.0 mg/kg/injection, schedule: Q01DX009 (ip), vehicle: saline 104 % of control | [7] 102 % of control

COc1cc2ccncc2cc1OCc1ccccc1
inactive: dose: 25.0 mg/kg/injection, schedule: Q01DX009 (ip), vehicle: saline 104 % of control | dose: 50.0 mg/kg/injection, schedule: Q01DX009 (ip), vehicle: saline 96 % of control | [2] 102 % of control

O=S1(=O)CCC/C1=C\c1ccccc1
inactive: [8] 121 % of control | [9] 103 % of control | dose: 400.0 mg/kg/injection, schedule: Q01DX001 (ip), vehicle: Klucel (hydroxypropylcellulose) (HPC) 101 % of control

CCOC(=O)/C=C1/Nc2cc(Cl)c(Cl)cc2NC1=O
inactive: [10] 97 % of control | [11] 95 % of control | [12] 89 % of control

CC1(C(=O)c2ccccc2)CN(C(C)(C)C)C1c1ccccc1 (stereo not given)
inactive: dose: 50.0 mg/kg/injection, schedule: Q01DX001 (ip), vehicle: Klucel (hydroxypropylcellulose) (HPC) 97 % of control | [8] 95 % of control | [9] 94 % of control

c1ccc([P+](c2ccccc2)(c2ccccc2)c2ccccc2)cc1
inactive: dose: 2.5 mg/kg/injection, schedule: Q01DX009 (ip), vehicle: saline 110 % of control | dose: 2.5 mg/kg/injection, schedule: Q04DX003 (ip), vehicle: saline 103 % of control | dose: 5.0 mg/kg/injection, schedule: Q01DX001 (ip), vehicle: saline 110 % of control | dose: 5.0 mg/kg/injection, schedule: Q01DX009 (ip), vehicle: saline 114 % of control | dose: 5.0 mg/kg/injection, schedule: Q04DX003 (ip), vehicle: saline 106 % of control | dose: 10.0 mg/kg/injection, schedule: Q01DX001 (ip), vehicle: saline 94 % of control | dose: 10.0 mg/kg/injection, schedule: Q04DX003 (ip), vehicle: saline 109 % of control

COc1ccc(C(=O)CC2CCCC(CC(=O)c3ccc(OC)cc3)N2C)cc1 (stereo not given)
inactive: dose: 75.0 mg/kg/injection, schedule: Q01DX001 (ip), vehicle: other 98 % of control | dose: 150.0 mg/kg/injection, schedule: Q01DX001 (ip), vehicle: other 90 % of control

CCOC(=O)C12CCC(CC1)C(C(=O)O)C2C(=O)O (stereo not given)
inactive: dose: 75.0 mg/kg/injection, schedule: Q04DX002 (ip), vehicle: saline with Tween-80 99 % of control | dose: 150.0 mg/kg/injection, schedule: Q04DX002 (ip), vehicle: saline with Tween-80 89 % of control | dose: 300.0 mg/kg/injection, schedule: Q04DX002 (ip), vehicle: saline with Tween-80 92 % of control

CCC[CH2][Sn]([CH2]C)([CH2]CCC)[CH2]CCC
inactive: [3] 93 % of control | [5] 93 % of control | [7] 95 % of control

CC(=O)Oc1ccc2c(c1N=NN(C)C)CCC1C2CCC2(C)C(=O)CCC12 (stereo not given)
inactive: [8] 98 % of control | [9] 104 % of control

NC(C(=O)O)c1ccco1 (stereo not given)
inactive: [13] 103 % of control | [14] 105 % of control | [15] 101 % of control

Cc1ccc2c(c1)SCc1c-2[nH]c2ccccc12
inactive: [10] 103 % of control | [11] 100 % of control | [12] 108 % of control

CC(C)C(C#N)(CCCCN1CCOCC1)c1cccc2ccccc12 (stereo not given)
inactive: [16] 93 % of control | [17] 103 % of control | [13] 92 % of control

CCCCCCCC/C=C\CCCCCCCC(=O)NCCCOCCOCCOCC
inactive: dose: 75.0 mg/kg/injection, schedule: Q01DX009 (ip), vehicle: saline 97 % of control | dose: 75.0 mg/kg/injection, schedule: Q04DX003 (ip), vehicle: saline 94 % of control | dose: 150.0 mg/kg/injection, schedule: Q01DX009 (ip), vehicle: saline 101 % of control | dose: 150.0 mg/kg/injection, schedule: Q04DX003 (ip), vehicle: saline 90 % of control | dose: 300.0 mg/kg/injection, schedule: Q01DX009 (ip), vehicle: saline 87 % of control | dose: 300.0 mg/kg/injection, schedule: Q04DX003 (ip), vehicle: saline 95 % of control

Cc1ccc(-n2c(=S)[nH]c3ccc(C)cc3c2=O)cc1
inactive: dose: 25.0 mg/kg/injection, schedule: Q01DX009 (ip), vehicle: saline with Tween-80 87 % of control | [10] 87 % of control

COC(=O)c1n[nH]c(C)c1N=NN1CCC(C(N)=O)CC1
inactive: dose: 9.38 mg/kg/injection, schedule: Q01DX001 (ip), vehicle: other 118 % of control | dose: 18.75 mg/kg/injection, schedule: Q01DX001 (ip), vehicle: other 109 % of control | dose: 37.5 mg/kg/injection, schedule: Q01DX001 (ip), vehicle: other 101 % of control

COc1ccc(-c2sc(/N=C/c3ccc(N(C)CCC#N)cc3)c(C#N)c2C)cc1OC
inactive: [18] 100 % of control | dose: 100.0 mg/kg/injection, schedule: Q04DX002 (ip), vehicle: saline with Tween-80 103 % of control and 118 % of control | [10] 102 % of control and 91 % of control | [19] 91 % of control | dose: 200.0 mg/kg/injection, schedule: Q04DX002 (ip), vehicle: saline with Tween-80 93 % of control and 96 % of control | [11] 95 % of control and 98 % of control | [20] 100 % of control | dose: 400.0 mg/kg/injection, schedule: Q04DX002 (ip), vehicle: saline with Tween-80 104 % of control and 106 % of control | [12] 102 % of control and 91 % of control

COc1ccc(C(O)CNC(=O)c2ccccc2)cc1 (stereo not given)
inactive: [16] 102 % of control | [17] 97 % of control | [1] 96 % of control | [13] 87 % of control | [4] 104 % of control | [6] 98 % of control | [15] 109 % of control

O=c1[nH]c2ccccc2n1C1=CCN(Cc2ccccc2)CC1
inactive: [13] 95 % of control | [14] 109 % of control | [15] 112 % of control

O=S(=O)(OCC1C2CCC1CC2)c1ccccc1 (stereo not given)
inactive: dose: 100.0 mg/kg/injection, schedule: Q01DX009 (ip), vehicle: other 92 % of control | dose: 100.0 mg/kg/injection, schedule: Q04DX003 (ip), vehicle: other 104 % of control | dose: 200.0 mg/kg/injection, schedule: Q01DX009 (ip), vehicle: other 94 % of control | dose: 200.0 mg/kg/injection, schedule: Q04DX003 (ip), vehicle: other 94 % of control | dose: 400.0 mg/kg/injection, schedule: Q01DX009 (ip), vehicle: other 101 % of control | dose: 400.0 mg/kg/injection, schedule: Q04DX003 (ip), vehicle: other 89 % of control

S=C1NC(c2ccco2)N2C(=S)NC(c3ccco3)N12 (stereo not given)
inactive: dose: 100.0 mg/kg/injection, schedule: Q01DX009 (ip), vehicle: gum acacia 90 % of control | dose: 100.0 mg/kg/injection, schedule: Q04DX003 (ip), vehicle: gum acacia 97 % of control | dose: 200.0 mg/kg/injection, schedule: Q01DX009 (ip), vehicle: gum acacia 95 % of control | dose: 200.0 mg/kg/injection, schedule: Q04DX003 (ip), vehicle: gum acacia 103 % of control | dose: 400.0 mg/kg/injection, schedule: Q01DX009 (ip), vehicle: gum acacia 95 % of control | dose: 400.0 mg/kg/injection, schedule: Q04DX003 (ip), vehicle: gum acacia 98 % of control

CC(=O)NC1C(Oc2ccccc2)OC(C(O)CO)C1O (stereo not given)
inactive: dose: 100.0 mg/kg/injection, schedule: Q01DX001 (sc), vehicle: saline 108 % of control | dose: 200.0 mg/kg/injection, schedule: Q01DX001 (sc), vehicle: saline 103 % of control | dose: 400.0 mg/kg/injection, schedule: Q01DX001 (sc), vehicle: saline 108 % of control

O=C1c2c(c(-c3ccccc3)c3ccccc3c2-c2ccccc2)C(c2ccccc2)c2c1c(-c1ccccc1)c1ccccc1c2-c1ccccc1
inactive: [18] 111 % of control | [19] 97 % of control | [20] 90 % of control
